Target: T1, human CD73 (Homo sapiens, UniProt P21589)
T1 sequence (P21589 27-549): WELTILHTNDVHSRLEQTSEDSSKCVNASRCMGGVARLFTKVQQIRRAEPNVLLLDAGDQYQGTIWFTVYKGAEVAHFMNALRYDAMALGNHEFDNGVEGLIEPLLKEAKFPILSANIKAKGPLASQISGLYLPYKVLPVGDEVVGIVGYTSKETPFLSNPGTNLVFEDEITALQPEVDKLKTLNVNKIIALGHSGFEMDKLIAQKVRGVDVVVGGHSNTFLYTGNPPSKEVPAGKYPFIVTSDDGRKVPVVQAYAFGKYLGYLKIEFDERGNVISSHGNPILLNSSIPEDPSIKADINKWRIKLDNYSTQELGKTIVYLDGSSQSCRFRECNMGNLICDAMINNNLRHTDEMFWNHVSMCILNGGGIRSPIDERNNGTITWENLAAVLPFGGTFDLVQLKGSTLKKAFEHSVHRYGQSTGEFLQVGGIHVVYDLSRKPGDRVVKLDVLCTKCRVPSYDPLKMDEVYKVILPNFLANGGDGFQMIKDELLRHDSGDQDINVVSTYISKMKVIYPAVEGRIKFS
Assay: Inhibition of Ecto-5′-nucleotidase (CD73) activity in CHO-CD73 cells, phosphate release from AMP
Assay type: cell-based
Conditions: CHO-K1 cells stably transfected with human CD73; 25 μM AMP; 50 minutes, 37° C.; read-out: Potency: CD73 IC50

IC50 [µM] | Structure (SMILES)
0.1 to 1 | N#Cc1ccc(Cn2nccc2-c2cc3c(cn2)nnn3-c2ccc3[nH]c(=O)[nH]c3c2)nc1 [Example 178]
> 1 | Fc1cc(-c2ccnn2C2CCCOC2)cc2c1nnn2-c1ccc2cn[nH]c2c1 (centres unmarked) [Example 373]
0.1 to 1 | Cc1coc(-c2cc(C#N)ccc2Cn2nccc2-c2cc(F)c3nnn(-c4ccc5[nH]c(=O)[nH]c5c4)c3c2)n1 [Example 320]
> 1 | Fc1cc(-c2ccnn2Cc2ccc(Cl)cn2)cc2c1cnn2-c1ccc2cn[nH]c2c1 [Example 133]
> 1 | Cn1ccc(Cn2nccc2-c2cc(F)c3nnn(-c4ccc5[nH]c(=O)[nH]c5c4)c3c2)n1 [Example 266]
> 1 | O=c1[nH]c2ccc(-n3nnc4c(F)cc(-c5ccnn5Cc5ccc6[nH]cnc6c5)cc43)cc2[nH]1 [Example 257]
> 1 | Nc1cc(-n2nnc3c(F)cc(-c4ccnn4Cc4ccc(Cl)cn4)cc32)ccc1O [Example 160]
0.1 to 1 | c1cc(-c2ccc3nnn(-c4ccc5cn[nH]c5c4)c3c2)n(Cc2ccc(C3CC3)cc2)n1 [Example 119]
0.1 to 1 | N#Cc1ccc(Cn2nccc2-c2cc(F)c3nnn(-c4ccc5cn[nH]c5c4)c3c2)nc1 [Example 107]
0.1 to 1 | CCS(=O)(=O)c1cc(C#N)ccc1Cn1nccc1-c1cc(F)c2nnn(-c3ccc4[nH]c(=O)[nH]c4c3)c2c1 [Example 261]
0.1 to 1 | Cc1ccc(Cn2nccc2-c2cc(Cl)c3nnn(-c4ccc5[nH]c(=O)[nH]c5c4)c3c2)cc1F [Example 207]
< 0.1 | Cc1ccc(Cn2nccc2-c2cc3c(cc2F)nnn3-c2ccc3cn[nH]c3c2)nc1 [Example 392]
0.1 to 1 | N#Cc1ccc(Cn2nccc2-c2cc(F)c3nnn(-c4ccc5c(CO)n[nH]c5c4)c3c2)cc1 [Example 344]
0.1 to 1 | FC(F)(F)Oc1ccccc1Cn1nccc1-c1cc(Cl)c2nnn(-c3ccc4cn[nH]c4c3)c2c1 [Example 53]
< 0.1 | Cc1cc(Cl)ccc1Cn1nccc1-c1cc(Cl)c2nnn(-c3ccc4cn[nH]c4c3)c2c1 [Example 96]
0.1 to 1 | O=c1[nH]c2ccc(-n3nnc4c(Cl)cc(-c5ccnn5C5CCc6cc(Cl)ccc65)cc43)cc2[nH]1 (centres unmarked) [Example 262]
0.1 to 1 | Cn1nccc1-c1cc(C#N)ccc1Cn1nccc1-c1cc(F)c2nnn(-c3ccc4[nH]c(=O)[nH]c4c3)c2c1 [Example 303]
0.1 to 1 | N#Cc1cnc(Cn2nccc2-c2cc(F)c3nnn(-c4ccc5[nH]c(=O)[nH]c5c4)c3c2)c(F)c1 [Example 255]
0.1 to 1 | Clc1ccc(Cn2nccc2-c2cnc3cnn(-c4ccc5cn[nH]c5c4)c3c2)c(Cl)c1 [Example 163]
< 0.1 | FC(F)(F)Oc1ccc(Cn2nccc2-c2cc(Cl)c3nnn(-c4ccc5cn[nH]c5c4)c3c2)cc1 [Example 46]
